Measured values: ChEMBL document CHEMBL6109064, “Functional and structural polypharmacology of indazole-based privileged ligands to tackle the undruggability of membrane transporters” (Eur J Med Chem, 2025)
Calls of active or inactive are those of the source. No cut-off for these calls is given here.

Columns and labels:
[1] = target: T1, Monocarboxylate transporter 1 (Homo sapiens, UniProt P53985); test: Inhibition of MCT-1 in human A549 cells assessed as potentiation of 3-BP-mediated cytotoxicity by measuring decrease in cell viability incubated for 72 hrs in presence of 3-BP by MTT assay; assay type: cell-based
T1 sequence (P53985 whole entry): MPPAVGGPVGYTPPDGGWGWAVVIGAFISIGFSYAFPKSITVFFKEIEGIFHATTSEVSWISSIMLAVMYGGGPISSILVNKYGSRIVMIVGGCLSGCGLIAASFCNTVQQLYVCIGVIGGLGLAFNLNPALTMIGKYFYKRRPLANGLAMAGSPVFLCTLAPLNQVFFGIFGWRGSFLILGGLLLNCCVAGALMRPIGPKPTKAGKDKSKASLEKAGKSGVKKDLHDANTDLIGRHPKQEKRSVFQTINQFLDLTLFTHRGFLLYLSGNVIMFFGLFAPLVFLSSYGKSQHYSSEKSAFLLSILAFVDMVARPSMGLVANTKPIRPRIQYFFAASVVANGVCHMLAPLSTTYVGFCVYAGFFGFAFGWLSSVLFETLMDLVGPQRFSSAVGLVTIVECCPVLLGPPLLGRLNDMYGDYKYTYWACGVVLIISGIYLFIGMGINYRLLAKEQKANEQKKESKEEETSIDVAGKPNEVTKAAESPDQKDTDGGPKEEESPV

[2] = target: Multidrug resistance-associated protein 1 (Homo sapiens, UniProt P33527); test: Inhibition of ABCC1 in human NCI-H69AR cells assessed as increase in daunorubicin fluorescence intensity using daunorubicin as tracer preincubated for 30 mins followed by daunorubicin addition and measured for 180 mins by flow cytometry; assay type: cell-based
[3] = target: Sodium-dependent serotonin transporter (Homo sapiens) (UniProt P31645); test: Inhibition of SERT (unknown origin) expressed in HEK293 cells assessed as inhibition of MPP+ transport incubated for 5 mins by tandem mass spectrometry; assay type: cell-based
[4] = target: T2, Solute carrier organic anion transporter family member 1B1 (Homo sapiens, UniProt Q9Y6L6); test: Inhibition of OATP1B1 (unknown origin) transfected in human A-431 cells assessed as inhibition of DHPDS uptake preincubated for 5 mins followed by DHPDS addition and measured after 10 mins by fluorescence based analysis; assay type: cell-based
T2 sequence (Q9Y6L6 whole entry): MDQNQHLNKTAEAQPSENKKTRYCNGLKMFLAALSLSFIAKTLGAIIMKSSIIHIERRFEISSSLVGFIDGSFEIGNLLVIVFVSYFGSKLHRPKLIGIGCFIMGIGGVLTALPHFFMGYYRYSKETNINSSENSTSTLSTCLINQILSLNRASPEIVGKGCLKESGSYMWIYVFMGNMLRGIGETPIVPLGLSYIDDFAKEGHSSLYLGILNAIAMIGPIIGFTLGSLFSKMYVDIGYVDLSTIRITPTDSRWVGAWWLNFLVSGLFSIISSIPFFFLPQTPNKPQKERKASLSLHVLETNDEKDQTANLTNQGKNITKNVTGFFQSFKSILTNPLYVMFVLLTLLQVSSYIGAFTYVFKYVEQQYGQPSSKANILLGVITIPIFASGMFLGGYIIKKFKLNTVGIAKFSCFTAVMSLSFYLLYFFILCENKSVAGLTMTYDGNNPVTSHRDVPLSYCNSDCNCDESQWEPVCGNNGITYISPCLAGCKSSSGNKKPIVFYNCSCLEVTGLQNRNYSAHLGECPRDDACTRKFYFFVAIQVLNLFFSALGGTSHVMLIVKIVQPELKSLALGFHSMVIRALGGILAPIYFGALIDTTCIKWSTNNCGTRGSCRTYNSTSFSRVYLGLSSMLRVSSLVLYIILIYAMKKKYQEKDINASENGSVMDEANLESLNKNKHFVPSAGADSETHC

[5] = target: T3, Solute carrier family 22 member 3 (Homo sapiens, UniProt O75751); test: Inhibition of OCT3 (unknown origin) expressed in HEK293 cells assessed as inhibition of ASP+ uptake incubated for 5 mins by fluorescence based analysis; assay type: cell-based
T3 sequence (O75751 whole entry): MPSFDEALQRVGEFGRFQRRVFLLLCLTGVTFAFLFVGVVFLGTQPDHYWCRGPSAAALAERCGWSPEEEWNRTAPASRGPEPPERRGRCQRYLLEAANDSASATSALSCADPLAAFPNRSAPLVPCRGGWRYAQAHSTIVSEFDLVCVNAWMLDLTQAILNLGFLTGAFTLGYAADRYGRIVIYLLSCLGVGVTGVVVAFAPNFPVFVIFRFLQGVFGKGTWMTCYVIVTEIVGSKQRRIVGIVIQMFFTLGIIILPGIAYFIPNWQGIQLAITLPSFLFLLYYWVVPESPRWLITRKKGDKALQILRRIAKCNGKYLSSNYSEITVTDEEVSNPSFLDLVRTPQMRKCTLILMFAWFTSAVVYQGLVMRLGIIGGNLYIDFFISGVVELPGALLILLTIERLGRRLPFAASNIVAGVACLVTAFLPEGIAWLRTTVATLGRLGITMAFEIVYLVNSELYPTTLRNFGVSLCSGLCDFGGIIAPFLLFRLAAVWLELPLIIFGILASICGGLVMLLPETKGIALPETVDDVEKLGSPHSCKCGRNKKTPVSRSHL

A549 = test: Cytotoxicity against MCT1 expressing human A549 cells assessed as inhibition of cell growth incubated for 72 hrs by MTT assay; assay type: functional
[6] = target: T4, Monocarboxylate transporter 4 (Homo sapiens) (UniProt O15427); test: Reversal of MCT4-mediated multidrug resistance in human MDA-MB-231 cells assessed as fold increase in doxorubicin-mediated cytotoxicity incubated for 72 hrs in presence of doxorubicin by MTT assay relative to control; assay type: cell-based
T4 sequence (whole entry): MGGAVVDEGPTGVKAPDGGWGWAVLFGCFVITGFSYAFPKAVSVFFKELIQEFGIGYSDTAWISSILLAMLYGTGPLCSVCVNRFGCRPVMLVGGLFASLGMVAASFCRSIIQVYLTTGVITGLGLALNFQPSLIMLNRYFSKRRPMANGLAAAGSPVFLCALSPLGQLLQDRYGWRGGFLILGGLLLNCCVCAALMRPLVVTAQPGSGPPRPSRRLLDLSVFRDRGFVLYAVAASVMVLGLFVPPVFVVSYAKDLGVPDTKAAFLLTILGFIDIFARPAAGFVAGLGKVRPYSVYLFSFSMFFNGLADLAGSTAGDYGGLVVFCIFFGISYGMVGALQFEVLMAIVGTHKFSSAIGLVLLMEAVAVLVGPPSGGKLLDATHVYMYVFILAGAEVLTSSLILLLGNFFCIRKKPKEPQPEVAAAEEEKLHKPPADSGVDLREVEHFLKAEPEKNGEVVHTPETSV

MDA-MB-231 = test: Cytotoxicity against human MDA-MB-231 cells assessed as inhibition of cell growth by MTT assay; assay type: functional
MCF7 = test: Cytotoxicity against MCT1 expressing human MCF7 cells assessed as inhibition of cell growth incubated for 72 hrs by MTT assay; assay type: functional

Chain of Multidrug resistance-associated protein 1 (P33527 whole entry): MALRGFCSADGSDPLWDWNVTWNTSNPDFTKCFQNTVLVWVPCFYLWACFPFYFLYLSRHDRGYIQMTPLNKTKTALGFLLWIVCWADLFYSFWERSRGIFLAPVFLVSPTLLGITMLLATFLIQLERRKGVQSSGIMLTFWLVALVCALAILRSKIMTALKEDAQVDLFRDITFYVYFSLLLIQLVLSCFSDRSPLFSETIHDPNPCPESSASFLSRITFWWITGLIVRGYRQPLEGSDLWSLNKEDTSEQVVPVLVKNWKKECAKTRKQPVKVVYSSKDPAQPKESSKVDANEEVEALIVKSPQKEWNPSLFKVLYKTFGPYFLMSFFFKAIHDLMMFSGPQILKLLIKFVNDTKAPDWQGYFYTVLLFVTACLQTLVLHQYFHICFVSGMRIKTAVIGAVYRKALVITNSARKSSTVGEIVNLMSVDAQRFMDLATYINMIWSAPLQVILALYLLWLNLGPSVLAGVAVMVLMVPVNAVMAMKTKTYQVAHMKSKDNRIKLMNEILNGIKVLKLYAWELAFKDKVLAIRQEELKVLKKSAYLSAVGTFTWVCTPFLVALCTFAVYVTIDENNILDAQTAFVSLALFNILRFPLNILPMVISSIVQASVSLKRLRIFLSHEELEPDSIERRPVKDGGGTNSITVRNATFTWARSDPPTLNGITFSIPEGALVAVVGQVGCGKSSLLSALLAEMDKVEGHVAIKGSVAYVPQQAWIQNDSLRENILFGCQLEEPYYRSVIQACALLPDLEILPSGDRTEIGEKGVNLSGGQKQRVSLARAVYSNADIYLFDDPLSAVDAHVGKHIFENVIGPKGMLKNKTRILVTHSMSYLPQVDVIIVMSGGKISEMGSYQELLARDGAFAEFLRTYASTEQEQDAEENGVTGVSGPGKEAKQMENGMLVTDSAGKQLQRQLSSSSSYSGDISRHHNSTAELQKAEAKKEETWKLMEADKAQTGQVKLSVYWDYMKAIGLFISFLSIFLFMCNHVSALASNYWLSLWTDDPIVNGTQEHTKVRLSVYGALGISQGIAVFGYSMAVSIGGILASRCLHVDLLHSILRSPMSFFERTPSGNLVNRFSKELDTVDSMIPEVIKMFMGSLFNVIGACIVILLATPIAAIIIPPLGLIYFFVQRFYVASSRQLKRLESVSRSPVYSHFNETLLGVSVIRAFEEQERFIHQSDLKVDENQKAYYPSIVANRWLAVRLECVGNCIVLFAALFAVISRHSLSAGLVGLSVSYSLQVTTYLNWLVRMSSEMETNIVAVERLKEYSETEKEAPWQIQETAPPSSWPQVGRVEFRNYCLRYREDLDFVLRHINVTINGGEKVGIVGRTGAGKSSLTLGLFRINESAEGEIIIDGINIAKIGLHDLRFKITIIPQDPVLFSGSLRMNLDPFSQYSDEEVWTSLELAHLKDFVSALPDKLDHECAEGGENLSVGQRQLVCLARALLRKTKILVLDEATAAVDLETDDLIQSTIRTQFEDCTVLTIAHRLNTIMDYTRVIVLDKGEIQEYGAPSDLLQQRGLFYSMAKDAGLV
Chain of Sodium-dependent serotonin transporter (Homo sapiens) (P31645 whole entry, looked up): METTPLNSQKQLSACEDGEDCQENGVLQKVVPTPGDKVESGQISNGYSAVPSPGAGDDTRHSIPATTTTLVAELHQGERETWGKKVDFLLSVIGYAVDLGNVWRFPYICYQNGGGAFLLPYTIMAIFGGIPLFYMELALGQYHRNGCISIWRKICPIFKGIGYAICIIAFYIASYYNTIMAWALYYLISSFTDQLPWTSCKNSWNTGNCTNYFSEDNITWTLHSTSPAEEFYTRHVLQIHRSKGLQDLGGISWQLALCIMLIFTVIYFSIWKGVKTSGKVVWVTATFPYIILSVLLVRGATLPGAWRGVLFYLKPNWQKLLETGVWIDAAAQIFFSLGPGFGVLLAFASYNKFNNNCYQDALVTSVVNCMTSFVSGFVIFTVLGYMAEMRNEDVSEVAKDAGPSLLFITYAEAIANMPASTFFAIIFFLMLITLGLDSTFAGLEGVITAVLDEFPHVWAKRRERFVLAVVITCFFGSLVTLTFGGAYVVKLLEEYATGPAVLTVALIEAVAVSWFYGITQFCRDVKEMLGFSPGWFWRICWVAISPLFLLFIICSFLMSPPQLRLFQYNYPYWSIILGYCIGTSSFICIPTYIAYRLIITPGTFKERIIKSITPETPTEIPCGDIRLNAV

Row | IC50 [2] | inhibition [3] | IC50 [4] | IC50 ([5]; read-out: IC50) | IC50 ([5]; hek293) | SMILES | IC50 [1] | GI50 (A549) | fold change (FC) [6] | GI50 (MDA-MB-231) | GI50 (MCF7)
1 | 2.19 µM | inactive | 5.66 µM | 76.4 µM | – | COc1cccc(NC(=O)c2nn(CC(=O)Nc3ccccc3OC)c3ccccc23)c1 | Not_active | – | – | – | –
2 | 0.492 µM | inactive | 16.8 µM | – | Not_active | O=C(Cn1nc(C(=O)Nc2ccccn2)c2ccccc21)Nc1cc(Cl)ccc1Cl | – | 37.1 µM | 3.52 | 29.9 µM | –
3 | 5.15 µM | inactive | 17.9 µM | 111 µM | – | O=C(Cn1nc(C(=O)Nc2cccnc2)c2ccccc21)Nc1ccc(Cl)cc1 | – | 28.6 µM | 3.85 | 30 µM | 10.8 µM
4 | 1.48 µM | inactive | 4.96 µM | – | Not_active | COc1cccc(NC(=O)Cn2nc(C(=O)Nc3cccc(OC)c3)c3ccccc32)c1 | Not_active | – | – | – | –
